Results reported in patent publication US20100047173A1, “Methods for Using Optical Agents” (priority 2006, published 2010).

Key:
[1] = In vivo fluorescence time dependence at the ear after ICG bolus (blood clearance by the liver), normal vs partially hepatectomized rats; design: species or system rat
Description: ICG in powdered form was obtained from Sigma (St. Louis, Mo.). Solutions were made by diluting the appropriate amount of ICG in 10 mL of distilled water. Concentrations less than 1 mM were made by serial dilution of a 1 mM stock solution. For ICG fluorescence detection, a nominal 780 nm collimated solid state laser source was employed (LaserMax Inc. model No. LAS-300-780-5). The laser source was directed into the end of a 3.2 mm diameter glass fiber optic bundle (Oriel No. 77526). The other end of this laser delivery bundle was placed approximately 1 cm from the rat ear at an approximate 45° angle. A second similar fiber optic bundle for use as the fluorescence detection conduit was placed approximately 1 cm from the ear at an approximate 30° angle. The exit end of the detection fiber bundle was positioned at the focal length of a 20 mm focal length lens. […] A digital voltmeter monitored the output signal. […]
Female Fischer 344 rats weighing 173-195 g were used. […] The dye was subsequently administered via the indwelling catheter, and the clearance of the agent monitored. […]
To verify that the fluorescence decay curves were related to liver function, and to assess this methodology's feasibility to determine impaired liver function, the following experiment was done. […] A measurement of the time dependence of fluorescence at the ear pre- and post-bolus injection of the ICG solution was measured next. […]

[2] = Ex-vivo continuous wave fluorescence imaging of caecum and lower large intestine after IV ICG; format: in vivo; conditions: rat, post-IV administration of aqueous ICG solution, 780 nm excitation, 830 nm detection
Description: ICG in powdered form was obtained from Sigma (St. Louis, Mo.). Solutions were made by diluting the appropriate amount of ICG in 10 mL of distilled water. Concentrations less than 1 mM were made by serial dilution of a 1 mM stock solution.
The animals were anesthetized with rat cocktail (xylazine; ketamine; acepromazine 1.5: 1.5: 0.5) at 0.8 mL/kg via intraperitoneal injection. A 21 gauge butterfly infusion set equipped with a stopcock and two syringes containing heparinized saline was placed into the lateral tail vein of the rat. Patency of the vein was checked prior to administration of the agent via the butterfly apparatus.
A simple noninvasive in vivo continuous wave fluorescence imaging apparatus was employed as described below. Light from a LaserMax Inc. laser diode of nominal wavelength 780 nm and nominal power of 40 mW was launched into a fiber optic bundle. A defocusing lens in position after the bundle expanded the beam such that most of the rat was illuminated. The laser power at the output of the bundle was approximately one half of the input power. […]
The above imaging system may also used to view and quantify ex-vivo organs and tissues. […] Blue is indicative of high fluorescence, and red is indicative of low fluorescence.

[3] = Open-surgery fluorescence imaging of the cystic duct after IV fluorescein; format: in vivo; conditions: anesthetized pig, approximately 80 minutes post-IV administration of 6 mL of 20 mg/mL fluorescein in PBS
Description: FIG. 1 depicts green fluorescence from fluorescein traveling through a cystic duct in an anesthetized pig. The image was taken during open surgery, post-IV administration of 6 mL of a 20 mg/mL concentration of fluorescein in PBS.
The image was taken during open surgery, approximately 80 minutes post-IV administration of 6 mL of a 20 mg/mL concentration of fluorescein in PBS. The pig weighed about 82 pounds.

Compound | fluorescence decay time, impaired liver function versus normal liver function ([1]; partially hepatectomized rats (33%-38% of liver ligated) vs normal rat, single exponential fit) | loss of initial fluorescence signal at the ear ([1]; rat, after about 15 minutes post-bolus injection of 500 mL of 1.007 mM ICG solution (FIG. 3)) | fluorescence of feces in ex-vivo intestine (hepatobiliary excretion) [2] | appearance of fluorescence in the cystic duct [3]
CC1(C)C(/C=C/C=C/C=C/C=C2\N(CCCCS(=O)(=O)[O-])c3ccc4ccccc4c3C2(C)C)=[N+](CCCCS(=O)(=O)[O-])c2ccc3ccccc3c21.[Na+] [ICG] | almost an order of magnitude longer | approximately 90% | feces that fluoresce due to the ICG within | 
O=C1OC2(c3ccc(O)cc3Oc3cc(O)ccc32)c2ccccc21 [fluorescein] |  |  |  | fluorescence from fluorescein traveling through the cystic duct
